Series [1] addresses T1, Cholinesterase (Homo sapiens, UniProt P06276). Briefly: Inhibition of human serum BuChE using butyrylthiocholine iodide as substrate at 10 uM incubated for 10 mins followed by substrate addition by DTNB reagent based Ellman's method relative to control. In general terms: In Ellman's method for cholinesterases, released thiocholine reacts with DTNB.
For series [2], the target named is T1, Cholinesterase. The series is described as follows: Inhibition of human serum BuChE using butyrylthiocholine iodide as substrate incubated for 10 mins followed by substrate addition by DTNB reagent based Ellman's method.
In series [3] the test system is PC-12. The series is described as follows: Neuroprotective activity against H2O2-induced rat PC12 cells assessed as protection against H2O2-induced apoptosis by measuring viable cells at 50 uM pretreated for 2 hrs followed by H2O2 addition and measured after 24 hrs by Annexin V-FITC/PI staining based flow cytometry analysis (reference value: 90.8 %). The format is functional. Conditions: time 26 hrs. Background: In flow cytometry, cells or beads pass a laser one at a time.

The subject of series [4] is PC-12. The series is described as follows: Neuroprotective activity against H2O2-induced rat PC12 cells assessed as protection against H2O2-induced apoptosis by measuring necrotic cells at 50 uM pretreated for 2 hrs followed by H2O2 addition and measured after 24 hrs by Annexin V-FITC/PI staining based flow cytometry analysis (reference value: 0.99 %). It is filed as functional. The note with it: time 26 hrs.

Series [5] is described as follows: Inhibition of H2O2-induced ROS release in rat PC12 cells assessed as mean fluorescence intensity at 50 uM preincubated for 2 hrs followed by H2O2 addition and measured after 24 hrs by DCFH-DA based flow cytometry analysis (reference value: 23904). The format is functional, PC-12. The note with it: time 26 hrs.
The subject of series [6] is PC-12. Briefly: Neuroprotective activity against H2O2-induced rat PC12 cells assessed as protection against H2O2-induced apoptosis by measuring early apoptotic cells at 50 uM pretreated for 2 hrs followed by H2O2 addition and measured after 24 hrs by Annexin V-FITC/PI staining based flow cytometry analysis (reference value: 0.88 %). It is filed as functional. The note with it: time 26 hrs.

Series [7] deals with PC-12. Briefly: Neuroprotective activity against H2O2-induced rat PC12 cells assessed as protection against H2O2-induced apoptosis by measuring late apoptotic cells at 50 uM pretreated for 2 hrs followed by H2O2 addition and measured after 24 hrs by Annexin V-FITC/PI staining based flow cytometry analysis (reference value: 7.26 %). The format is functional. The note with it: time 26 hrs.

Series [8] can be described thus: Cytotoxicity against rat PC12 cells assessed as cell viability at 50 uM preincubated for 24 hrs and measured after 4 hrs by CCK-8 assay. Conditions: time 28 hrs, read-out: Activity. It is filed as toxicity, cell-based, PC-12. On the technique in general: Formazan colour is commonly taken as a measure of viable cells.
Series [9] deals with PC-12. The series is described as follows: Cytoprotective against rat PC12 cells assessed as cell viability at 50 uM preincubated for 24 hrs and measured after 4 hrs by CCK-8 assay. It is filed as functional, cell-based.
Series [10] concerns the target Acetylcholinesterase (Homo sapiens, UniProt P22303). The series is described as follows: Inhibition of human erythrocytes AChE measured after 10 mins by Ellman's method.
The test system of series [11] is PC-12. The series is described as follows: Antioxidant activity against H2O2-induced toxicity in rat PC12 cells at 12.5 uM preincubated for 2 hrs and measured after 24 hrs by CCK-8 assay. It is filed as functional, cell-based. Conditions: time 26.0 hrs.
The subject of series [12] is Mus musculus. The series is described as follows: Antialzheimer activity against scopolamine-induced ICR mouse cognitive deficit model assessed as latency time at 2.5 to 10 mg/kg, po administrated daily and measured on initial day of training by Morris water maze test. It is filed as functional. The note with it: dose 2.5-10 mg/kg.
Series [13] concerns Mus musculus. The series is described as follows: Antialzheimer activity in amyloid beta (1 to 42 residues) induced ICR mouse assessed as increase in time spent within target quadrant at 5 mg/kg, po administered daily and measured after 15 to 19 days by Morris water maze test. The note with it: time 15-19 day. The format is functional, organism-based.
Series [14] has as its system Mus musculus. The series is described as follows: Antialzheimer activity in amyloid beta (1 to 42 residues) induced ICR mouse assessed as increase in distance travelled within target quadrant at 5 mg/kg, po administered daily and measured after 15 to 19 days by Morris water maze test. The format is functional, organism-based. Conditions: time 15-19 day.
Series [15] relates to Mus musculus. The series is described as follows: Antialzheimer activity against scopolamine-induced ICR mouse cognitive deficit model assessed as decrease in movement distance at 2.5 to 10 mg/kg, po administrated daily and measured on last day of training by Morris water maze test. The format is functional, organism-based. The note with it: dose 2.5-10 mg/kg.
Series [16] has as its system Mus musculus. The series is described as follows: Antialzheimer activity in amyloid beta (1 to 42 residues) induced ICR mouse memory impairment model assessed as increase in trajectory after platform removal at 2.5 to 10 mg/kg, po administered daily and measured after 15 to 19 days by Morris water maze test. It is filed as functional, organism-based. The note with it: dose 2.5-10 mg/kg, time 15-19 day.

Series [17] has as its system Mus musculus. The series is described as follows: Antialzheimer activity against amyloid beta (1 to 42)-induced ICR mouse memory impairment model assessed as decrease in movement distance at 2.5 to 10 mg/kg, po administered daily and measured after 15 to 19 days by Morris water maze test. The format is functional, organism-based. The note with it: dose 2.5-10 mg/kg, time 15-19 day.

The subject of series [18] is Mus musculus. The series is described as follows: Antialzheimer activity against amyloid beta (1 to 42)-induced ICR mouse cognitive deficit model assessed as increase in alternation performance at 5 mg/kg, po administered daily and measured on day 12 by Y-maze test relative to control. It is filed as functional. Conditions: time 12 day.
Series [19] deals with Mus musculus. Briefly: Antialzheimer activity against scopolamine-induced ICR mouse cognitive deficit model assessed as decrease in latency time at 2.5 to 10 mg/kg, po administrated daily and measured on last day of training by Morris water maze test. The note with it: dose 2.5-10 mg/kg. It is filed as functional, organism-based.
Series [20] deals with Mus musculus. Briefly: Antialzheimer activity against amyloid beta (1 to 42)-induced ICR mouse memory impairment model assessed as mean escape latency at 2.5 to 10 mg/kg, po administered daily and measured after 15 to 19 days by Morris water maze test. The format is functional, organism-based. The note with it: dose 2.5-10 mg/kg, time 15-19 day.
Series [21] has as its system Mus musculus. The series is described as follows: Antialzheimer activity in scopolamine-induced ICR mouse assessed as increase in trajectory within target quadrant at 2.5 to 10 mg/kg, po administered daily and measured after 16 to 20 days by Morris water maze test. The format is functional, organism-based. The note with it: dose 2.5-10 mg/kg, time 16-20 day.

Here are results for 13 compounds from ChEMBL document CHEMBL6121005 (Eur J Med Chem, 2025).

The term inhibition denotes the change of the read-out against control, counted positive when it falls. A high value points to strong suppression. The IC50 is the concentration that inhibits the measured activity by half.

Activity calls are given as the source filed them. No cut-off for these calls is given here.

Acetylcholinesterase, sequence (P22303 whole entry): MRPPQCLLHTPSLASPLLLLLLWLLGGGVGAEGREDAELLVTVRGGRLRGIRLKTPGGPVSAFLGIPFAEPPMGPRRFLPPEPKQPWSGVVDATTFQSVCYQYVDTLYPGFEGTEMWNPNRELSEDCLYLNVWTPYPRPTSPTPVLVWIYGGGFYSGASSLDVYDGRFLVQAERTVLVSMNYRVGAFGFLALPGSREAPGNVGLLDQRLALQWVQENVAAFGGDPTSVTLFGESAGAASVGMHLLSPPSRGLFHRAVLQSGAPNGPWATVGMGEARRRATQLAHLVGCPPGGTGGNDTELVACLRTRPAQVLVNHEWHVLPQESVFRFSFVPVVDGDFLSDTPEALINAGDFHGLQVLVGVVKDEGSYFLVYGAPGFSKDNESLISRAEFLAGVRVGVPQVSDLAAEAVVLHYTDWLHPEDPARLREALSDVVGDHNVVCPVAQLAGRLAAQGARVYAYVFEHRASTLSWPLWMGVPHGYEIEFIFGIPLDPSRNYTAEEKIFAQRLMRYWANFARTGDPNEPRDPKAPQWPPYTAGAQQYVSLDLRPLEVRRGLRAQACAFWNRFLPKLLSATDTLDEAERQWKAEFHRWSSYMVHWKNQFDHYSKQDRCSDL
T1 sequence (P06276 whole entry): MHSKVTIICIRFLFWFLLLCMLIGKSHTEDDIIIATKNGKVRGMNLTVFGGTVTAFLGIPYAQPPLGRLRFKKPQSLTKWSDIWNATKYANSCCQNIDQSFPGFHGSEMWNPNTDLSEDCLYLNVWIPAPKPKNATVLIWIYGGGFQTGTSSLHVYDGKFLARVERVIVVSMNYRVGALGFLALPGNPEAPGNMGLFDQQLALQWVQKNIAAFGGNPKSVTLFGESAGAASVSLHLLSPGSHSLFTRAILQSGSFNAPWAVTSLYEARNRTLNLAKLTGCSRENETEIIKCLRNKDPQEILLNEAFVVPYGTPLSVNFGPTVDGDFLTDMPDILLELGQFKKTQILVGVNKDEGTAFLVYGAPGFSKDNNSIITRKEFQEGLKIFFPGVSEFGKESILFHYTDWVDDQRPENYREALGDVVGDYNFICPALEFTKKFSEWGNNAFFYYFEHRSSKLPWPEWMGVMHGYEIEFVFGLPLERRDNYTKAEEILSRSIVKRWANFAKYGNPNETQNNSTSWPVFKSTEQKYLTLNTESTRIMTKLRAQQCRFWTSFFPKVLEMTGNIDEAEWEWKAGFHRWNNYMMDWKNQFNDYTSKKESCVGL

In the case of `COc1ccc2c3c1O[C@H]1C[C@@H](OCc4ccc(Cc5ccccc5)cn4)C=C[C@@]31CCN(C)C2`, the inhibition in [1] was found to be 91.2%. It took 1500 nM to reach half-maximal inhibition in series [2] (IC50).

For the compound `COc1ccc2c3c1O[C@H]1C[C@@H](OCc4ccc(Cc5cccc(F)c5)cn4)C=C[C@@]31CCN(C)C2`, in [1], the inhibition came to 92.3%. In addition, the IC50 in series [2] came out at 743 nM.

For the compound `Oc1ccc(/C=C/c2cc(O)cc(O)c2)cc1` [RESVERATROL], the Activity in [3] stood at 88.3%; in series [4] it was 1.79%; in series [6], 3.58%; in series [7], 6.38%. The Flu intensity in series [5] was found to be 29540.

`COc1ccc(Cc2ccc(CO[C@H]3C=C[C@@]45CCN(C)Cc6ccc(OC)c(c64)O[C@H]5C3)nc2)cc1`: the inhibition in series [1] was found to be 87%. In addition, the IC50 in [2] amounted to 1310 nM.

In [1], `COc1ccc2c3c1O[C@H]1C[C@@H](OC(=O)NC4CCN(Cc5ccccc5)CC4)C=C[C@@]31CCN(C)C2` showed an inhibition of 29.2%. The viability at 4 h, 50 µM in [8] was above 90%. The Activity in [3] was 79.3%; in series [4] it was 1.35%; in series [11], “Dose-dependent-effect”; in [6], 8.66%; in [7], 10.7%. The outcome in series [9] was Active. Besides, the Flu intensity in series [5] turned out to be 76256. In addition, the IC50 in series [10] was found to be 370 nM.

As for `COc1cccc(Cc2ccc(CO[C@H]3C=C[C@@]45CCN(C)Cc6ccc(OC)c(c64)O[C@H]5C3)nc2)c1`, in [1], the inhibition stood at 88.2%. Further, in series [2], it took 1070 nM to reach half-maximal inhibition (IC50).

With `COc1ccc2c3c1O[C@H]1C[C@@H](OCc4ccc(Cc5ccc(C)cc5)cn4)C=C[C@@]31CCN(C)C2`, in series [1], the inhibition turned out to be 87.4%. In addition, the IC50 in [2] is 1350 nM.

`COc1ccc2c3c1O[C@H]1C[C@@H](O)C=C[C@@]31CCN(C)C2` [GALANTAMINE]: the Time in series [12] stood at 60 s. The outcome in [13], in series [14], in [15], in series [16], in series [9] and in [17] was Active. For the same compound, the outcome in series [19], in [20] and in series [21] was Active. For the same compound, the Activity in series [3] came to 70.8%; in series [4], 1.89%; in [18] it was 72.92%; in series [6], 11.5%; in series [7], 17.3%. Also, the Flu intensity in series [5] is listed as 89205.

Regarding `COc1ccccc1Cc1ccc(CO[C@H]2C=C[C@@]34CCN(C)Cc5ccc(OC)c(c53)O[C@H]4C2)nc1`, in [1], the inhibition came to 84.4%. The IC50 in series [10] was 3200 nM; in [2] it was 2660 nM.

For `COc1ccc2c3c1O[C@H]1C[C@@H](OCc4ccc(Cc5cccc(Cl)c5)cn4)C=C[C@@]31CCN(C)C2`, the inhibition in [1] amounted to 90.5%. Besides, in [8], the viability at 4 h, 50 µM is above 90%. Moreover, the Activity amounted to 72.4% in [3], 1.45% in [4], 10.9% in [6] and 15% in [7]. For the same compound, the outcome in [9] was Active. The Flu intensity in [5] was 88808. Besides, the results for the IC50 in series [10] and in series [2] were 3390 nM and 913 nM, respectively.

In series [1], `COc1ccc2c3c1O[C@H]1C[C@@H](OC(=O)NC4CCN(Cc5cccc(F)c5)CC4)C=C[C@@]31CCN(C)C2` showed an inhibition of 18.6%. Besides, the viability at 4 h, 50 µM in series [8] is above 90%. Besides, the Activity in [3] is 82.7%; in series [4] it was 1.27%; in series [6], 5.71%; in series [7], 10.3%. Besides, the result in [9] was Active. The Flu intensity in [5] worked out at 52051. Moreover, the IC50 in [10] amounted to 419 nM.

In series [1], `COc1ccc2c3c1O[C@H]1C[C@@H](OCc4ccc(Cc5ccc(Cl)cc5)cn4)C=C[C@@]31CCN(C)C2` came in with an inhibition of 88.7%. In series [2], this compound returned an IC50 of 1030 nM.

In series [1], `COc1ccc2c3c1O[C@H]1C[C@@H](OCc4ccc(Cc5ccc(F)cc5)cn4)C=C[C@@]31CCN(C)C2` returned an inhibition of 90.3%. The compound further gave an IC50 in [2] of 1010 nM.
